The record followed here is US12297171B2, “EP2 antagonist compounds” (Reservoir Neuroscience, Inc., priority 2021, dated 2025).

Molecules are shown by their SMILES.

The assay addresses T1, EP2 receptor (Homo sapiens, UniProt P43116).
T1 construct: expressed in transfected cells; host or cells: CHO-K1 cells (ATCC), transiently transfected with FuGENE 6
Nature of the assay: EP2 potency assay (cAMP TR-FRET, LANCE Ultra cAMP kit, antagonism of prostaglandin E2 at EC80). Format: cell-based. As to conditions: CHO-K1 cells transfected with EP2 receptor. Here is the method: Compound potency was measured using a cAMP TR-FRET assay.
CHO-K1 cells (ATCC) were seeded at a density of 9.75×10^5 in 6 cm plates, and then on the following day cell media was changed to Opti-Mem I reduced serum media (Gibco), and transfected with a plasmid for expression of the EP2 receptor (the target receptor of interest), using the FuGENE 6 Transfection reagent (Promega). After 6 hours incubation, the cell media was replaced with F12 medium supplemented with 10% FBS and 100 U/ml Pen-Strep. 24 hours after transfection, cells were harvested and seeded at a density of 3000 cells/well in a 384 well plate to perform the cAMP assay, using the LANCE Ultra cAMP assay kit (PerkinElmer).
For each test compound of interest, 10 nl/well of serially diluted test compound was added to each well, resulting in a range of 10 serially diluted compound concentrations from 10000 nM to 0.038 nM, with duplicate wells for each concentration. Plates were then centrifuged at 1000 rpm for 1 min, agitated at 600 rpm at R.T. for 2 min, and incubated at 25° C. for 5 min. The reference agonist, prostaglandin E2 (MCE), was added to each well at the appropriate concentration to reach its EC80 value. Plates were then centrifuged at 1000 rpm for 1 min, agitated at 600 rpm at R.T. for 2 min, and incubated at 25° C. for 30 min.
To measure levels of cAMP, 5 μl/well of Eu-cAMP working solution and 5 μl/well of Ulight-anti-cAMP working solution were added to each well, and plate was centrifuged at 1000 rpm for 1 min, agitated at 600 rpm at R.T. for 2 min, and incubated at 25° C. for 15 min. Levels of TR-FRET fluorescence were measured in each well using an EnVision microplate reader (excitation wavelength=337 nm and emission wavelength=615 and 665 nm). A dose-response curve was prepared by plotting percent inhibition for each compound concentration, and then IC50 was calculated by fitting a curve to the plotted values and extrapolating the IC50 concentration.
Potency data is grouped into categories of AA (IC50<100 nM); A (IC50=100 to 500 nM); B (IC50=500 nM to 1 μM); C (IC50=1 μM to 5 μM); and D (IC50>5 μM).
For orientation: In TR-FRET formats the signal depends on donor and acceptor labels being close together.

T1 sequence (P43116 whole entry): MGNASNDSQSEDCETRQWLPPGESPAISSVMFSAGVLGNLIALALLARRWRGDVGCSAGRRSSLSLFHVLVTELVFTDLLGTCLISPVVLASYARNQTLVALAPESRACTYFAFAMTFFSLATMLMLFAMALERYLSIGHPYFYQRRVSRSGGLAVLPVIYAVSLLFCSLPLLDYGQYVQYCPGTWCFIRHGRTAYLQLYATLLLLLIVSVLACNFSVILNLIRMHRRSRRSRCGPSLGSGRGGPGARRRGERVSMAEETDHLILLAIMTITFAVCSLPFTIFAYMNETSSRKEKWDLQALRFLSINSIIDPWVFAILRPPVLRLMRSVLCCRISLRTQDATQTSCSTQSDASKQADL

Regarding `COc1ccc(C(=O)N2CCC(COc3ccc(-c4ccc(C#N)cc4)cc3)(c3cc[nH]c(=O)c3)C2)cc1` (stereo not drawn) [Compound 4-16, 4′-{[1-(4-methoxybenzoyl)-3-(2-oxo-1H-pyridin-4-yl)pyrrolidin-3-yl]methoxy}-[1,1′-biphenyl]-4-carbonitrile], the concentration for half-maximal inhibition (IC50) (commonly the concentration that gives 50% inhibition) was over 5 µM. For `COc1ccc(C(=O)N2CCC(COc3ccc(-c4ccc(C#N)cc4)cc3)(C(=O)NS(=O)(=O)C(C)C)C2)cc1` (stereo not drawn) [Compound 4-28, 3-[({4′-cyano-[1,1′-biphenyl]-4-yl}oxy)methyl]-1-(4-methoxybenzoyl)-N-(propane-2-sulfonyl)pyrrolidine-3-carboxamide], the 50% inhibitory concentration (IC50) lay in the range of 0.5 to 1 µM.

In turn, `COc1ccc(C(=O)N2CCC(COc3ccc(-c4ccc(C#N)cc4)cc3)(C(=O)NO)C2)cc1` (stereo not drawn) [Compound 4-13, 3-(((4′-cyano-[1,1′-biphenyl]-4-yl)oxy)methyl)-N-hydroxy-1-(4-methoxybenzoyl)pyrrolidine-3-carboxamide] had an IC50 of 1 to 5 µM. As for `COc1ccc(C(=O)N2CCC(COc3ccc(-c4ccc(C#N)cc4)cc3)(C(=O)NCC(F)(F)F)C2)cc1` (stereo not drawn) [Compound 4-20, 3-(((4′-cyano-[1,1′-biphenyl]-4-yl)oxy)methyl)-1-(4-methoxybenzoyl)-N-(2,2,2-trifluoroethyl)pyrrolidine-3-carboxamide], the figure is over 5 µM.

With `COc1ccc(C(=O)N2CCC(COc3ccc(-c4ccc(C#N)cc4)cc3)(C(=O)NC#N)C2)cc1` (stereo not drawn) [Compound 4-21, N-cyano-3-(((4′-cyano-[1,1′-biphenyl]-4-yl)oxy)methyl)-1-(4-methoxybenzoyl)pyrrolidine-3-carboxamide], the concentration for half-maximal inhibition (IC50) was 1 to 5 µM. The figure for `COc1ccc(C(N2CCC(COc3ccc(-c4ccc(C#N)cc4)cc3)(C(=O)O)C2)C(F)(F)F)cc1` (stereo not drawn) [Compound 4-1, 3-[({4′-cyano-[1,1′-biphenyl]-4-yl}oxy)methyl]-1-[2,2,2-trifluoro-1-(4-methoxyphenyl)ethyl]pyrrolidine-3-carboxylic acid; trifluoroacetic acid] is over 5 µM; for `COc1ccc(C(=O)N2CCC(COc3ccc(-c4ccc(C#N)cc4)cc3)(C(=O)NS(=O)(=O)CC(F)(F)F)C2)cc1` (stereo not drawn) [Compound 4-26, 3-[({4′-cyano-[1,1′-biphenyl]-4-yl}oxy)methyl]-1-(4-methoxybenzoyl)-N-(2,2,2-trifluoroethanesulfonyl)pyrrolidine-3-carboxamide] it is 1 to 5 µM; for `CCS(=O)(=O)NC(=O)C1(COc2ccc(-c3ccc(C#N)cc3)cc2)CCN(C(=O)c2ccc(OC)cc2)C1` (stereo not drawn) [Compound 4-25, 3-[({4′-cyano-[1,1′-biphenyl]-4-yl}oxy)methyl]-N-(ethanesulfonyl)-1-(4-methoxybenzoyl)pyrrolidine-3-carboxamide] it is 0.5 to 1 µM. The figure for `COc1ccc(C(=O)N2CCC(COc3ccc(-c4ccc(C#N)cc4)cc3)(C(=O)N(C)O)C2)cc1` (stereo not drawn) [Compound 4-22, 3-(((4′-cyano-[1,1′-biphenyl]-4-yl)oxy)methyl)-N-hydroxy-1-(4-methoxybenzoyl)-N-methylpyrrolidine-3-carboxamide] is 1 to 5 µM; for `COc1ccc(C(=O)N2CCC(COc3ccc(-c4ccc(C#N)cc4)cc3)(C(=O)NS(=O)(=O)c3ccccc3)C2)cc1` (stereo not drawn) [Compound 4-31, N-(benzenesulfonyl)-3-[({4′-cyano-[1,1′-biphenyl]-4-yl}oxy)methyl]-1-(4-methoxybenzoyl)pyrrolidine-3-carboxamide] it is over 5 µM; for `COCS(=O)(=O)NC(=O)C1(COc2ccc(-c3ccc(C#N)cc3)cc2)CCN(C(=O)c2ccc(OC)cc2)C1` (stereo not drawn) [Compound 4-27, 3-[({4′-cyano-[1,1′-biphenyl]-4-yl}oxy)methyl]-1-(4-methoxybenzoyl)-N-methoxymethanesulfonylpyrrolidine-3-carboxamide] it is 0.1 to 0.5 µM. In turn, `N#Cc1ccc(-c2ccc(OCC3(C(=O)O)CCN(C(c4ccc(Br)cc4)C(F)(F)F)C3)cc2)cc1` (stereo not drawn) [Compound 4-34, 1-[1-(4-bromophenyl)-2,2,2-trifluoroethyl]-3-[({4′-cyano-[1,1′-biphenyl]-4-yl}oxy)methyl]pyrrolidine-3-carboxylic acid] yielded an IC50 of over 5 µM.
